In general, melting point refers to the temperature, or range, at which the solid turns liquid.

Molecules are shown by their SMILES.

`O=C(O)CNC(=O)NC1CCCCC1` registered a melting point of 162 to 164 °C.
As for `CCOc1cccc(CNC(=O)CCl)c1`, the figure is 97 to 99 °C; as for `CC1Oc2ccc(Br)cc2NC1=O` (configuration not stated), 189 to 191 °C.
As for `CC(C#N)CSc1ccccc1NC(=O)CCl` (configuration not stated), the figure is 94 to 96 °C; as for `NC(=NO)C1CCCCCC1`, 87 to 89 °C.
Then `CC(C)(C)c1cc(N)c(C#N)s1`, with 99 to 101 °C; and `O=C(O)CCSCc1ccccn1`, with 74 to 76 °C.
`N#CCC(=O)N(CC(F)(F)F)C1CC1` displayed a melting point of 69 to 71 °C.
Then `O=S(=O)(c1ccccc1)N1C2Cc3ccccc3C21` (configuration not stated), with 120 to 122 °C; and `COc1ccc(N2CCC(N)CC2)cc1`, with 50 to 52 °C.
Then `Nc1ncc(Cl)s1`, with 90 to 92 °C.
As for `COc1cncc(CCC(=O)O)c1`, the figure is 102 to 104 °C; as for `c1n[nH]c2c1CCNC2`, 134 to 136 °C.
On to `COc1ccc(CNc2ccc3[nH]c(=O)[nH]c3c2)cc1`, for which the melting point was in the range of 254 to 256 °C.
Regarding `NS(=O)(=O)c1ccc(CCn2c(S)nc3ccccc3c2=O)cc1`, the melting point lay within 294 to 296 °C.
Then `Nc1ccn(-c2cccc(C(F)(F)F)c2)n1`, with 80 to 82 °C.
`O=C1CCC(O)(c2cccc(F)c2)CC1` showed a melting point of 111 to 113 °C.
Then `NS(=O)(=O)C1CCOCC1`, with 129 to 131 °C; and `Cc1nn(Cc2ccc(Cl)cc2)c(C)c1C=O`, with 71 to 73 °C.
`O=C(O)CSCCc1ccccc1`: the melting point fell in the range of 56 to 58 °C.
In the case of `O=C(O)c1cnc2c(OC(F)(F)F)cccc2c1O`, the melting point lay in the range of 259 to 261 °C.
As for `COc1ccc(-c2nc3c(s2)C(=O)CCC3)cc1`, the figure is 112 to 114 °C; as for `CCOC(=O)c1cnc(C)c(C(=O)O)c1`, 199 to 201 °C; as for `CC(=N\O)/C(C)=N/O`, 240 to 241 °C.
Then `Nc1ccnc(CO)c1`, with 99 to 101 °C; and `CNc1ccc(Oc2ccccn2)cc1`, with 126 to 128 °C.
As for `O=C(O)c1cc(Cl)c(Cl)[nH]1`, the melting point is 164 to 166 °C.
As for `CS(=O)(=O)c1cccc(C(=O)c2ccccc2)c1`, the figure is 86 to 88 °C; as for `Nc1nc(Cl)c(C=O)c(N2CCCC2)n1`, 176 to 178 °C; as for `CC(C)(C)Sc1ccc(N)cc1`, 67 to 69 °C.
Then `CC1NCCNC1=O` (configuration not stated), with 65 to 67 °C; and `O=c1c2ccccc2ncn1CCCl`, with 124 to 126 °C.
As to `Nc1cccc(S(=O)(=O)C2CCCC2)c1`, the melting point was in the range of 117 to 119 °C.
As for `O=C(O)Cn1ccc([N+](=O)[O-])n1`, the figure is 172 to 174 °C; as for `Cn1cnnc1-c1ccc(N)cc1`, 256 to 258 °C; as for `O=C(O)CSc1nc2ccccc2o1`, 158 to 160 °C.
Then `Nc1ccc(N2CCCC2)cc1C(=O)O`, with 148 to 150 °C.
As for `Clc1nccc(N2CCCC2)n1`, the figure is 121 to 123 °C.
For the molecule `Nc1nc(CN2CCN(c3ncccn3)CC2)cs1`, the melting point fell in the range of 158 to 160 °C.
`CC(=O)Nc1cccc(CN)c1` came in with a melting point of 82 to 84 °C.
Then `COC(=O)c1ccn2c(I)cnc2c1`, with 209 to 211 °C; and `O=C(CCl)NCC(F)(F)F`, with 51 to 53 °C.
Then `O=C(O)c1ccccc1CO`, with 119 to 121 °C.
Then `NNC(=O)N1CCOCC1`, with 121 to 123 °C.
Molecule `CCc1ccc2nc(N)sc2c1` displayed a melting point of 105 to 107 °C.
Then `CN(C)C(=O)COc1cccc(N)c1`, with 100 to 102 °C.
Then `O=C(O)/C=C/c1cccc(OCc2ccccc2)c1`, with 151 to 153 °C.
As for `COC(=O)C1CNC(=O)C1` (configuration not stated), the figure is 58 to 60 °C; as for `O=C(O)c1cccc(NC(=O)c2ccc(Br)o2)c1`, 229 to 231 °C.
Regarding `O=C(O)C(NCc1ccccc1)c1ccc(C(F)(F)F)cc1` (configuration not stated), the melting point fell in the range of 230 to 232 °C.
`O=C(O)c1ccccc1-c1cncnc1` had a melting point of 228 to 230 °C.
As for `Cc1cc(NC(=O)C2CCCCC2C(=O)O)[nH]n1` (configuration not stated), the figure is 114 to 116 °C.
Then `CC(C)(C)OC(=O)NCCOc1ccc(N)cc1`, with 73 to 75 °C.
Then `NC(=S)c1ccc(NC(=O)c2ccco2)cc1`, with 258 to 260 °C; and `N#Cc1cccc(NCc2ccc(Cl)cc2)c1`, with 84 to 86 °C.
In turn, `CC(=O)NS(=O)(=O)Cl` returned a melting point of 92 to 94 °C.
As for `COc1ccc(OCc2cc(C(=O)O)c(C)o2)cc1`, the figure is 123 to 133 °C; as for `CC(C)(C)OC(=O)N1CCOCC1C(=O)O` (configuration not stated), 162 to 164 °C; as for `Fc1ccc2c(C3=CCNCC3)c[nH]c2c1`, 173 to 175 °C.
Then `Nc1nc(Cl)ncc1[N+](=O)[O-]`, with 209 to 211 °C; and `CN(C)c1ccc(NC(=O)NN)cc1`, with 140 to 142 °C.
In turn, `O=C1CC2CCCC(C1)N2Cc1cccs1` yielded a melting point of 88 to 90 °C.
Then `COc1cccc(C(=O)NN)c1O`, with 144 to 146 °C; and `Cc1n[nH]c(C(=O)O)c1C`, with 288 to 290 °C.
Then `CCn1c(N)c(-c2csc(C)n2)c(=O)[nH]c1=O`, with 250 to 252 °C; and `CCN(CC)S(=O)(=O)c1cccc(C(=O)NC(C(=O)O)C(C)C)c1` (configuration not stated), with 110 to 112 °C.
Then `CN(C)c1ccc2cc(N)ccc2n1`, with 84 to 86 °C.
`O=C(COc1ccccc1C(=O)O)Nc1cccc(C(F)(F)F)c1`: the melting point was in the range of 243 to 245 °C.
As for `O=C(O)c1cc(S(=O)(=O)N2CCOCC2)ccc1Br`, the figure is 188 to 190 °C; as for `O=C(CCl)N1CCN(S(=O)(=O)c2ccc(Cl)s2)CC1`, 240 to 245 °C; as for `O=C(c1cc(Br)c[nH]1)C(Cl)(Cl)Cl`, 125 to 127 °C.
As for `N#Cc1cccc(CCl)c1`, the figure is 67 to 70 °C; as for `COc1ccc(/C=C(/C(=O)O)c2cccs2)cc1`, 205 to 207 °C.
Then `C/C(Cn1nc(C)cc1C)=N\O`, with 114 to 116 °C; and `[N-]=[N+]=Nc1ccc(I)cc1`, with 33 to 35 °C; and `N#CCc1ccc(OCc2ccccc2N)cc1`, with 108 to 110 °C.
For `c1ccc(COc2ccc3cn[nH]c3c2)cc1`, the melting point is 166 to 168 °C.
In turn, `COc1ccc([N+](=O)[O-])cc1NS(=O)(=O)c1ccc(Cl)c(C(=O)O)c1` came in with a melting point of 221 to 223 °C.
As for `Cc1ccc(CNC(=O)c2ccccc2NC(=O)CCl)cc1`, the figure is 150 to 152 °C; as for `O=C(O)c1cnc(Cl)nc1Cl`, 96 to 98 °C; as for `NC(=O)NCC1CCCNC1` (configuration not stated), 83 to 85 °C.
Then `O=C(O)COc1ccc(Oc2ccccn2)cc1`, with 154 to 156 °C; and `CCOC(=O)c1cc(Br)cc(F)c1N`, with 48 to 50 °C; and `C#CCOc1ccccc1C#N`, with 77 to 79 °C.
As for `Cc1cc(Cl)c(O)cc1OCC(=O)O`, the figure is 131 to 133 °C; as for `CC(C)(C)c1cccc2c1OCC2=O`, 69 to 71 °C.
For the molecule `Cc1cc2ncn(C(C)c3ccccc3)c2cc1C` (configuration not stated), the melting point lay within 169 to 171 °C.
As for `O=C(O)Cc1csc(N2CCCC2=O)n1`, the figure is 118 to 120 °C.
Then `O=C(O)CCNC(=O)c1cc(F)ccc1Br`, with 112 to 114 °C.
As for `CCOC(=O)c1c(C)[nH]c(C(=O)O)c1C`, the figure is 204 to 206 °C; as for `C#Cc1cccc(NC(=O)CBr)c1`, 118 to 120 °C; as for `CCN(Cc1ccccc1)c1ccc(C(=O)O)cc1`, 183 to 185 °C.
`O=C(O)c1cc(F)c(Br)c(S(=O)(=O)Cl)c1` returned a melting point of 213 to 215 °C.
As for `N#CCc1cccc(C(N)=O)c1`, the figure is 157 to 159 °C.
`Cc1nc(Cl)c2c(CC(C)C)csc2n1` gave a melting point of 60 to 62 °C.
As for `Cc1noc(C)c1S(=O)(=O)NCCC(=O)O`, the figure is 105 to 118 °C.
As for `Nc1cccc(N2CCCS2(=O)=O)c1`, the figure is 85 to 87 °C; as for `CCOc1ccccc1-n1nnnc1S`, 53 to 55 °C; as for `O=C(O)c1ccc(CN2CCCC2=O)cc1`, 151 to 153 °C.
Regarding `CS(=O)(=O)Nc1ccc(S(=O)(=O)Cl)c(F)c1`, the melting point lay within 149 to 151 °C.
As for `O=C(O)CCCOc1ccc(S(=O)(=O)Cl)cc1Cl`, the figure is 134 to 136 °C.
As for `CC(C)C(Br)C(=O)NCc1ccccc1F` (configuration not stated), the figure is 104 to 106 °C.
Then `NNC(=O)c1ccc(S(=O)(=O)N2CCCC2)cc1`, with 199 to 201 °C.
For the molecule `Cc1cc(C(=O)O)nn1-c1ccccc1`, the melting point was in the range of 182 to 184 °C.
As for `O=C(O)CNC(=O)c1ncccc1O`, the figure is 234 to 236 °C; as for `Cc1cc(C)nc(C#N)c1`, 43 to 45 °C.
Then `CN(C)S(=O)(=O)c1ccc(N2CCOCC2)c(C(=O)O)c1`, with 218 to 220 °C; and `O=[N+]([O-])c1ccc(NC2CCCC2)nc1`, with 114 to 116 °C; and `Cc1cc(C(=O)O)c2cnn(C)c2n1`, with 284 to 286 °C.
As for `N#CCc1c[nH]c2cc(Br)ccc12`, the figure is 112 to 114 °C; as for `CCCCc1ccc(NS(=O)(=O)c2ccc(N)cc2)cc1`, 159 to 161 °C.
Regarding `O=S(=O)(c1cccnc1)N1CCNCC1`, the melting point lay in the range of 88 to 90 °C.
Turning to `NCCNS(=O)(=O)c1cc(Br)ccc1Br`, the melting point was in the range of 170 to 172 °C.
As for `O=C(O)C1CC2(CCCC2)C1`, the figure is 29 to 31 °C; as for `Cc1nc(COc2ccc(C=O)cc2)cs1`, 46 to 48 °C; as for `Cc1cc(C)cc(OCC(=O)N2Cc3ccccc3CC2C(=O)O)c1` (configuration not stated), 161 to 165 °C.
For `COC(=O)c1c(-c2cnn(C)c2)csc1N`, the melting point is 128 to 130 °C.
Then `CC(Cl)C(=O)Nc1ccnn1C(C)C` (configuration not stated), with 69 to 71 °C; and `CC(C)(C)OC(=O)Nc1cccc(C(N)=NO)c1`, with 168 to 170 °C; and `CC(C)Sc1ccc([N+](=O)[O-])cc1C(=O)O`, with 184 to 186 °C.
On to `COc1cc(OC)c(S(=O)(=O)Cl)cc1S(=O)(=O)Cl`, for which the melting point lay within 139 to 141 °C.
Molecule `N#Cc1cc(Br)cc(S(=O)(=O)Cl)c1` yielded a melting point of 74 to 76 °C.
